Measured values published in patent US20110178118A1, “PALONOSETRON FOR THE TREATMENT OF CHEMOTHERAPY INDUCED EMESES” (priority 2002, published 2011).
Read-outs that look alike come from different tables or passages of the source. Marks after values point to notes of the source that are not given here.

Assays:
cisplatin-induced emesis [1] = experiment: Reversal of cisplatin-induced emesis, intravenous antiemetic one hour after cisplatin; assay type: in vivo, dogs; conditions: for Emetic Episodes (mean ± SD): observed five hours
Method: (§1) The antiemetic effects of intravenously and orally administered palonosetron were assessed in male and female dogs (sexes combined). Antineoplastic agents employed in these experiments included cisplatin (3 mg/kg)), dacarbazine (30 mg/kg), mechlorethamine (0.4 mg/kg) and actinomycin D (0.15 mg/kg). […] Mean numbers of episodes were computed and the statistical significance of differences between treatment groups were determined with Dunnett's t test. Solutions of palonosetron and comparator drugs (ondansetron and granisetron) were prepared in distilled water. Vehicle control groups received distilled water. In a different study, palonosetron and ondansetron were assessed for their relative abilities to reverse cisplatin-induced emesis. In these experiments dogs received intravenous injections of palonosetron, ondansetron, or vehicle one hour after the intravenous administration of 3.0 mg/kg cisplatin. Each animal was observed continuously for five hours following cisplatin administration for the number of emetic episodes.

cisplatin-induced emesis [2] = experiment: Intravenous palonosetron vs ondansetron in cisplatin-treated dogs; assay type: in vivo; conditions: 1.0 mg/kg intravenous; five-hour period following cisplatin 3.0 mg/kg
Method: The antiemetic effects of intravenously and orally administered palonosetron were assessed in male and female dogs (sexes combined). Antineoplastic agents employed in these experiments included cisplatin (3 mg/kg)), dacarbazine (30 mg/kg), mechlorethamine (0.4 mg/kg) and actinomycin D (0.15 mg/kg). […] Mean numbers of episodes were computed and the statistical significance of differences between treatment groups were determined with Dunnett's t test. Solutions of palonosetron and comparator drugs (ondansetron and granisetron) were prepared in distilled water. Vehicle control groups received distilled water. The therapeutic effects of intravenously and orally administered palonosetron were compared to those of ondansetron and vehicle in cisplatin-treated dogs.

[3] = tested on: Actinomycin D-Induced Emesis; experiment: Antagonism of actinomycin D-induced emesis; assay type: in vivo, dogs; conditions: 2 hours prior to actinomycin D 0.15 mg/kg IV, observed 5 hours
[4] = tested on: Mechlorethamine-Induced Emesis; assay type: in vivo, dogs; conditions: 2 hours prior to mechlorethamine 0.4 mg/kg IV, observed 5 hours
cisplatin-induced emesis [5] = experiment: Duration of action in cisplatin-treated dogs; assay type: in vivo
Method: Mean numbers of episodes were computed and the statistical significance of differences between treatment groups were determined with Dunnett's t test. Solutions of palonosetron and comparator drugs (ondansetron and granisetron) were prepared in distilled water. Vehicle control groups received distilled water.

[6] = tested on: Dacarbazine-Induced Emesis; experiment: Antagonism of dacarbazine-induced emesis; assay type: in vivo, dogs; conditions: 2 hours prior to dacarbazine 30.0 mg/kg IV, observed 5 hours
cisplatin-induced emesis [7] = experiment: Anti-emetic effect, oral antiemetic one hour before cisplatin; assay type: in vivo, dogs; conditions: for Emetic Episodes (mean ± SD): observed five hours
Method: as §1, with “The observation of potency differential was further seen during an experiment in which oral dose-response relationships of” for “In a different study,”, “compared in cisplatin-treated dogs. Palonosetron, ondansetron” for “assessed for their relative abilities to reverse cisplatin-induced emesis. In these experiments dogs received intravenous injections of palonosetron, ondansetron,”, “vehicle control were administered by the oral route” for “vehicle”, “prior to” for “after”, “the” for “the intravenous”, “of” for “of 3.0 mg/kg”

[8] = intravenous antiemetic 0.01 mg/kg
[9] = intravenous antiemetic 0.03 mg/kg
[10] = intravenous antiemetic 0.1 mg/kg
[11] = intravenous antiemetic 0.3 mg/kg

In the case of `Cc1nccn1CC1CCc2c(c3ccccc3n2C)C1=O` (centres unmarked) [Ondansetron, reference compound], the “Emetic Episodes (mean ± SD)” value (cisplatin-induced emesis [1]; intravenous dose 1.0 μg/kg one hour after cisplatin 3.0 mg/kg IV) is reported as 16.16 ± 5.14 ^, the “Emetic Episodes (mean ± SD)” value (cisplatin-induced emesis [1]; intravenous dose 3.0 μg/kg one hour after cisplatin 3.0 mg/kg IV) is reported as 13.33 ± 4.17 ^ and the “Emetic Episodes (mean ± SD)” value (cisplatin-induced emesis [1]; intravenous dose 10.0 μg/kg one hour after cisplatin 3.0 mg/kg IV) is reported as 13.33 ± 3.01 ^. The “Emetic Episodes (mean ± SD)” value (cisplatin-induced emesis [1]; intravenous dose 30.0 μg/kg one hour after cisplatin 3.0 mg/kg IV) was 8.33 ± 3.20^, the “Emetic Episodes (mean ± SD)” value (cisplatin-induced emesis [1]; intravenous dose 100.0 μg/kg one hour after cisplatin 3.0 mg/kg IV) was 4.83 ± 2.40^b and the “Emetic Episodes (mean ± SD)” value (cisplatin-induced emesis [1]; intravenous dose 300.0 μg/kg one hour after cisplatin 3.0 mg/kg IV) was 1.00 ± 2.00^b. The “Emetic Episodes (mean ± SD)” value (cisplatin-induced emesis [1]; intravenous dose 1000.0 μg/kg one hour after cisplatin 3.0 mg/kg IV) was 1.16 ± 0.40^b, the “statistically minimally effective dose level” value (cisplatin-induced emesis [1]; intravenous, one hour after cisplatin) was 0.1 mg/kg and the “mean number of emetic episodes” value (cisplatin-induced emesis [2]) was 6.83. The “Emetic Episodes (mean ± SD)” value [3, 8] was 7.67 ± 2.25^d, the “Emetic Episodes (mean ± SD)” value [3, 9] was 14.67 ± 4.68 ^ and the “Emetic Episodes (mean ± SD)” value [3, 10] was 12.67 ± 3.45 ^. The “Emetic Episodes (mean ± SD)” value [3, 11] was 5.83 ± 4.45^d, the “Emetic Episodes (mean ± SD)” value ([3]; oral antiemetic 0.03 mg/kg) was 9.83 ± 7.52^ and the “Emetic Episodes (mean ± SD)” value ([3]; oral antiemetic 0.1 mg/kg) was 10.33 ± 4.84 ^. For the same compound, the “Emetic Episodes (mean ± SD)” value ([3]; oral antiemetic 0.3 mg/kg, one dog dropped) was 4.20 ± 1.92^d, the “Emetic Episodes (mean ± SD)” value ([3]; oral antiemetic 1 mg/kg) was 1.50 ± 1.38^d and the “Emetic Episodes (mean ± SD)” value [4, 8] was 5.83 ± 4.31. The “Emetic Episodes (mean ± SD)” value [4, 9] was 3.50 ± 2.07^c, the “Emetic Episodes (mean ± SD)” value [4, 10] was 5.33 ± 4.68 and the “Emetic Episodes (mean ± SD)” value [4, 11] was 4.67 ± 1.63^c. The “Emetic Episodes (mean ± SD)” value ([4]; oral antiemetic 0.03 mg/kg) was 5.67 ± 2.50, the “Emetic Episodes (mean ± SD)” value ([4]; oral antiemetic 0.1 mg/kg) was 8.50 ± 3.15 and the “Emetic Episodes (mean ± SD)” value ([4]; oral antiemetic 0.3 mg/kg) was 2.83 ± 3.71^d. The “Emetic Episodes (mean ± SD)” value ([4]; oral antiemetic 1 mg/kg) was 0.00 ± 0.00^d, the “pretreatment time before cisplatin with reduced emetic episodes” value (cisplatin-induced emesis [5]; 0.15 mg/kg IV) was “only after a one-hour pretreatment period” and the “Emetic Episodes (mean ± SD)” value (cisplatin-induced emesis [5]; 0.15 mg/kg IV, 1 hr pre-cisplatin 3.0 mg/kg IV) was 7.83 ± 4.12^b. The “Emetic Episodes (mean ± SD)” value (cisplatin-induced emesis [5]; 0.15 mg/kg IV, 2 hr pre-cisplatin 3.0 mg/kg IV) was 10.67 ± 5.28, the “Emetic Episodes (mean ± SD)” value (cisplatin-induced emesis [5]; 0.15 mg/kg IV, 4 hr pre-cisplatin 3.0 mg/kg IV) was 12.67 ± 2.07 and the “Emetic Episodes (mean ± SD)” value (cisplatin-induced emesis [5]; 0.15 mg/kg IV, 6 hr pre-cisplatin 3.0 mg/kg IV) was 14.17 ± 6.79. For the same compound, the “Emetic Episodes (mean ± SD)” value (cisplatin-induced emesis [5]; 0.15 mg/kg IV, 8 hr pre-cisplatin 3.0 mg/kg IV) was 15.50 ± 7.29, the “Emetic Episodes (mean ± SD)” value (cisplatin-induced emesis [5]; 0.15 mg/kg IV, 10 hr pre-cisplatin 3.0 mg/kg IV) was 13.83 ± 4.58 and the “Emetic Episodes (mean ± SD)” value (cisplatin-induced emesis [5]; 0.15 mg/kg IV, 12 hr pre-cisplatin 3.0 mg/kg IV) was 22.00 ± 8.32. The “protective effects, pretreatment time prior to cisplatin” value (cisplatin-induced emesis [5]; earlier experiment, 0.3 mg/kg, IV) was “as long as seven hours”, the “Emetic Episodes (mean ± SD)” value [6, 8] was 11.50 ± 5.51 ^ and the “Emetic Episodes (mean ± SD)” value [6, 9] was 8.17 ± 2.79^. For the same compound, the “Emetic Episodes (mean ± SD)” value [6, 10] was 4.83 ± 2.48^d, the “Emetic Episodes (mean ± SD)” value [6, 11] was 1.33 ± 0.82^d and the “Emetic Episodes (mean ± SD)” value ([6]; oral antiemetic 0.03 mg/kg) was 10.83 ± 2.72 ^. For the same compound, the “Emetic Episodes (mean ± SD)” value ([6]; oral antiemetic 0.1 mg/kg) was 6.17 ± 5.35^d, the “Emetic Episodes (mean ± SD)” value ([6]; oral antiemetic 0.3 mg/kg) was 3.00 ± 3.03^d and the “Emetic Episodes (mean ± SD)” value ([6]; oral antiemetic 1 mg/kg) was 0.17 ± 0.41^d. The “Emetic Episodes (mean ± SD)” value (cisplatin-induced emesis [7]; oral dose 1.0 μg/kg one hour before cisplatin) was 15.50 ± 3.93, the “Emetic Episodes (mean ± SD)” value (cisplatin-induced emesis [7]; oral dose 3.0 μg/kg one hour before cisplatin) was 14.83 ± 6.49 and the “Emetic Episodes (mean ± SD)” value (cisplatin-induced emesis [7]; oral dose 10.0 μg/kg one hour before cisplatin) was 12.66 ± 3.01. For the same compound, the “Emetic Episodes (mean ± SD)” value (cisplatin-induced emesis [7]; oral dose 30.0 μg/kg one hour before cisplatin) was 18.33 ± 8.43, the “Emetic Episodes (mean ± SD)” value (cisplatin-induced emesis [7]; oral dose 100.0 μg/kg one hour before cisplatin) was 10.50 ± 3.14 and the “Emetic Episodes (mean ± SD)” value (cisplatin-induced emesis [7]; oral dose 300.0 μg/kg one hour before cisplatin) was 3.16 ± 1.32^a. The “Emetic Episodes (mean ± SD)” value (cisplatin-induced emesis [7]; oral dose 1000.0 μg/kg one hour before cisplatin) was 2.00 ± 2.09^a and the “minimally effective dose (significant reduction in episodes)” value (cisplatin-induced emesis [7]; oral, one hour before cisplatin) was 0.3 mg/kg.
